e = 2'-O-(2-methoxyethyl) (MOE); d = 2'-deoxy (DNA)
Assays:
human Factor XI mRNA [1] = assay: Dose-dependent antisense inhibition in HepG2 cells, lipofectin (Example 2); assay type: cell-based; details: approximately 16 hours
human Factor XI mRNA [2] = assay: Antisense inhibition in HepG2 cells by microwalk gapmers, 75 nM, lipofectin (Example 3); assay type: cell-based; details: HepG2 cells, 75 nM, oligonucleotides targeted to nucleobases 1275 to 1318 of SEQ ID NO: 1
Method in brief: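 HepG2 cells (10,000 per well) were transfected with 75 nM gapmer using lipofectin and treated for about 24 h. Factor XI mRNA was quantified by real-time PCR, normalized to RiboGreen total RNA and expressed as percent inhibition versus untreated controls.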

human Factor XI mRNA [3] = assay: Antisense inhibition in HepG2 cells by microwalk gapmers, 8,000 nM, electroporation (Example 14); assay type: cell-based; details: HepG2 cells, 8,000 nM
Method in brief: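 Percent reduction of Factor XI transcript, relative to untreated controls, by real-time PCR with RIBOGREEN normalisation. Readout taken about 24 h after electroporating HepG2 cells with 8,000 nM oligonucleotide. Gapmers are 5-10-5, 5-8-5 or 6-8-6 MOE wings, phosphorothioate backbone.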

[4] = design: species or system Sprague-Dawley rats; details: rat, in vivo, sc, 20 mg/kg
Description: The concentration of the full-length oligonucleotide as well as the total oligonucleotide concentration (including the degraded form) was measured. The method used is a modification of previously published methods (Leeds et al., 1996; Geary et al., 1999) which consist of a phenol-chloroform (liquid-liquid) extraction followed by a solid phase extraction. An internal standard (ISIS 355868, a 27-mer 2′-O-methoxyethyl modified phosphorothioate oligonucleotide, […], designated herein as SEQ ID NO: 270) was added prior to extraction. […] The results are presented in Tables 98 and 99, expressed as μg/g liver or kidney tissue.

[5] = Tolerability in CD1 mice: liver function (Example 17); assay type: in vivo; design: Albumin: unit not given here; details: plasma, 50 mg/kg s.c. twice a week
[6] = Tolerability in CD1 mice: kidney function (Example 17); assay type: in vivo; details: plasma, 50 mg/kg s.c. twice a week
Description: Results are presented in Tables 62 and 63, expressed in mg/dL.

[7] = Tolerability in CD1 mice: hematology assays (Example 17); assay type: in vivo; details: for lymphocyte count / monocyte count / neutrophil count: percent of total blood cell count; for HCT / MCH / MCHC / MCV / WBC count: blood, 50 mg/kg s.c. twice a week
Description: A control group of five mice was injected subcutaneously with PBS for 2 weeks. All experimental groups (i.e. ASO treated mice at 2, 4, 6 weeks) were compared to the control group (i.e. PBS, 2 weeks).
Blood obtained from all mice groups were sent to Antech Diagnostics for hematocrit (HCT), mean corpuscular volume (MCV), mean corpuscular hemoglobin (MCH), and mean corpuscular hemoglobin concentration (MCHC) measurements and analyses, as well as measurements of the various blood cells, such as WBC (neutrophils, lymphocytes, and monocytes), RBC, and platelets, and total hemoglobin content. Percentages given in the tables indicate the percent of total blood cell count.

[8] = Tolerability in Sprague-Dawley rats: liver function (Example 19); assay type: in vivo; details: plasma, 50 mg/kg s.c. twice per week for 6 weeks
Description: (§1) Urine samples were taken before the start of treatment.

[9] = Tolerability in Sprague-Dawley rats: kidney function (Example 19); assay type: in vivo; details: Sprague-Dawley rats, plasma, 50 mg/kg s.c. twice per week for 6 weeks
Description: as §1

[10] = Tolerability in Sprague-Dawley rats: hematology assays (Example 19); assay type: in vivo; details: 50 mg/kg s.c. twice per week for 6 weeks
Description: as §1

[11] = as above; assay type: in vivo; details: 50 mg/kg s.c. twice per week for 6 weeks; remark: listed apart in the source

In the case of “412225 (antisense GCAGCGGACGGCATTGGTGC; sugars from the 5' end e5 d10 e5, backbone and methylation of C not given here) [compound 412225]”, the “percent inhibition of Factor XI” value (human Factor XI mRNA [1]; 9.375 nM) is reported as 32%, the “percent inhibition of Factor XI” value (human Factor XI mRNA [1]; 18.75 nM) is reported as 42% and the “percent inhibition of Factor XI” value (human Factor XI mRNA [1]; 37.5 nM) is reported as 65%. The “percent inhibition of Factor XI” value (human Factor XI mRNA [1]; 75 nM) was 78%, the “percent inhibition of Factor XI” value (human Factor XI mRNA [1]; 150 nM) was 73% and the “% inhibition of human Factor XI mRNA levels” value (human Factor XI mRNA [2]) was 86%. For the same substance, the “Percent inhibition of human Factor XI mRNA levels” value (human Factor XI mRNA [3]) was 86% and the “Half-life in the liver and kidney” value [4] was 21 days.

For “413482 (antisense GGACGGCATTGGTGCACAGT; sugars from the 5' end e5 d10 e5, backbone and methylation of C not given here) [compound 413482]”, the “percent inhibition of Factor XI” value (human Factor XI mRNA [1]; 9.375 nM) was 26%, the “percent inhibition of Factor XI” value (human Factor XI mRNA [1]; 18.75 nM) was 39% and the “percent inhibition of Factor XI” value (human Factor XI mRNA [1]; 37.5 nM) was 59%. For the same substance, the “percent inhibition of Factor XI” value (human Factor XI mRNA [1]; 75 nM) was 74%, the “percent inhibition of Factor XI” value (human Factor XI mRNA [1]; 150 nM) was 82% and the “% inhibition of human Factor XI mRNA levels” value (human Factor XI mRNA [2]) was 89%. The “Percent inhibition of human Factor XI mRNA levels” value (human Factor XI mRNA [3]) was 88% and the “Half-life in the liver and kidney” value [4] was 20 days.

For “ATGCCCTTCATGTCTAGGTC (all C 5-methyl, all phosphorothioate, sugars by position not given here; MOE gapmer) [ISIS 416826, 5-10-5 MOE gapmer]”, the ALT ([5]; 2 weeks) was 182 IU/L, the AST ([5]; 2 weeks) was 274 IU/L and the Albumin ([5]; 2 weeks) was 3.3. The Bilirubin ([5]; 2 weeks) was 0.39 mg/dL, the ALT ([5]; 4 weeks) was 126 IU/L and the AST ([5]; 4 weeks) was 156 IU/L. The Albumin ([5]; 4 weeks) was 3.4, the Bilirubin ([5]; 4 weeks) was 0.20 mg/dL and the ALT ([5]; 6 weeks) was 1954 IU/L. The AST ([5]; 6 weeks) was 1411 IU/L, the Albumin ([5]; 6 weeks) was 3.4 and the Bilirubin ([5]; 6 weeks) was 0.37 mg/dL. For the same substance, the BUN ([6]; 2 weeks) was 24 mg/dL, the creatinine ([6]; 2 weeks) was 0.15 mg/dL and the BUN ([6]; 4 weeks) was 34 mg/dL. It also gave a creatinine ([6]; 4 weeks) of 0.20 mg/dL, a BUN ([6]; 6 weeks) of 27 mg/dL and a creatinine ([6]; 6 weeks) of 0.15 mg/dL. It also gave an RBC count ([7]; 2 weeks) of 8 cells/pL, a hemoglobin content ([7]; 2 weeks) of 13.4 g/dL and a platelet count ([7]; 2 weeks) of 1498 cells/nL. The lymphocyte count ([7]; 2 weeks) was 70%, the monocyte count ([7]; 2 weeks) was 3% and the neutrophil count ([7]; 2 weeks) was 26%. It also gave an RBC count ([7]; 4 weeks) of 8 cells/pL, a hemoglobin content ([7]; 4 weeks) of 12.8 g/dL and a platelet count ([7]; 4 weeks) of 970 cells/nL. For the same substance, the lymphocyte count ([7]; 4 weeks) was 61%, the monocyte count ([7]; 4 weeks) was 5% and the neutrophil count ([7]; 4 weeks) was 33%. The RBC count ([7]; 6 weeks) was 7 cells/pL, the hemoglobin content ([7]; 6 weeks) was 11.0 g/dL and the platelet count ([7]; 6 weeks) was 645 cells/nL. The lymphocyte count ([7]; 6 weeks) was 67%, the monocyte count ([7]; 6 weeks) was 8% and the neutrophil count ([7]; 6 weeks) was 23%. For the same substance, the HCT ([7]; 2 weeks) was 47%, the MCH ([7]; 2 weeks) was 17 pg and the MCHC ([7]; 2 weeks) was 29%. For the same substance, the MCV ([7]; 2 weeks) was 56 fL, the WBC count ([7]; 2 weeks) was 5 cells/nL and the HCT ([7]; 4 weeks) was 41%. The MCH ([7]; 4 weeks) was 16 pg, the MCHC ([7]; 4 weeks) was 31% and the MCV ([7]; 4 weeks) was 52 fL. For the same substance, the WBC count ([7]; 4 weeks) was 6 cells/nL, the HCT ([7]; 6 weeks) was 37% and the MCH ([7]; 6 weeks) was 16 pg. For the same substance, the MCHC ([7]; 6 weeks) was 30%, the MCV ([7]; 6 weeks) was 53 fL and the WBC count ([7]; 6 weeks) was 8 cells/nL. The ALT [8] was 611 IU/L, the AST [8] was 104 IU/L and the Albumin [8] was 6 mg/dL. The Bilirubin [8] was 115 mg/dL, the BUN [9] was 25 mg/dL and the creatinine [9] was 6 mg/dL. The Lymphocytes [10] was 5%, the MCH ([10]; title says % control) was 3 pg and the Monocytes [11] was 7%. The Neutrophils [11] was 30%, the Platelets [11] was 11 10^3/μL and the RBC [11] was 5 pL⁻¹. The WBC [11] was 7 nL⁻¹, the HCT ([11]; title says % control) was 7% and the Hemoglobin ([11]; title says % control) was 7 g/dL. For the same substance, the MCHC ([11]; title says % control) was 4% and the MCV ([11]; title says % control) was 6 fL.

Source: US20120083522A1, “MODULATION OF INFLAMMATORY RESPONSES BY FACTOR XI” (Isis Pharmaceuitcals, inc., priority 2009, published 2012)
